Data taken from patent US20250017964A1, “ENGINEERING OR INDUCING PDGF AND/OR PDGFR SIGNALING TO ENHANCE NK CELL THERAPY” (City of Hope, priority 2021, published 2025).

Tests used:
Format in all cases: cell-based, human
PDGFRB = PDGFRB mRNA levels by qPCR; conditions: primary NK cells, IL-15 10 ng/ml
Experimental: FIGS. 2A-2I. IL-15-induced PDGFRβ expression is mediated by PI3K/AKT signaling. (A-B) Primary NK cells were treated with IL-15 (10 ng/ml) for the indicated times. mRNA levels of PDGFRB at different time points (A) (n=3) or at 1 h (B) (n=10) were examined by qPCR. (C-D) Primary NK cells were pretreated with actinomycin D (ActD, 5., g/ml) (C) or cycloheximide (CHX, 20 μg/ml) (D) for 1 h, washed twice with RPMI-1640, and then treated with IL-15 (10 ng/ml) for 24 h. DMSO was used as a control. Expression levels of PDGFRβ were examined by flow cytometry (n=5). Data shown are representative histograms and percentage of inhibition with the equation: % inhibition=100×[1−(DMSO-inhibitor)/DMSO]. […] (G-I) Binding of p65 to the PDGFRB promoter in IL-15-treated NK cells (G) or resting NK cells (H) as determined by ChIP-qPCR or PCR (I) (n=3). […]
RNA was isolated using an RNeasy Mini Kit (QIAGEN) and reversely transcribed to cDNA with a PrimeScript RT Reagent Kit with gDNA Eraser (Takara Bio) according to the manufacturer's protocol. mRNA expression levels were analyzed using SYBR Green qPCR Master Mix and a QuantStudio 12K Flex Real-Time PCR System (both from Thermo Fisher Scientific). […]

NK cells [1] = assay: NK cell effector functions and surface receptors, flow cytometry; conditions: IL-15-primed NK cells (10 ng/ml), PDGF ligand 50 ng/ml, 48 h
Experimental: FIGS. 3A-3K. […] (A-E) Primary NK cells were treated with IL-15 (10 ng/ml) in the presence of PDGF-B (50 ng/ml) or PDGF-D (50 ng/ml) for 48 h. Expression levels of IFN-γ, TNF-α, granzyme B, perforin, and CD107a were examined by flow cytometry (n=5). (F-K) Primary NK cells were treated with IL-15 (10 ng/ml) plus PDGF-D (50 ng/ml) in the presence of anti-NKp44 (10 βg/ml) or anti-PDGFRβ (10 μg/ml) for 48 h. Expression levels of IFN-γ, TNF-α, and CD107a were examined by flow cytometry (n=3). Data represent three independent experiments. Data shown are means±SD. NS, not significant. *P<0.05, **P<0.01, and ***P<0.001.
FIGS. 10A-10K. […] (A-E) Representative histograms and summary data of IFN-γ, TNF-α, granzyme B, perforin, and CD107a in PDGFRβ^+ and PDGFRβ^− NK cells. Cells were gated on CD56^+PDGFRβ^+ or CD56^+PDGFRβ^− cells. (F) PDGFRβ^+ and PDGFRβ^− NK cells were sorted by flow cytometry and co-cultured with ^51 Cr-labeled K562 cells in a 96-well V-bottom plate at ratios of 5:1, 2.5:1, or 1.25:1 for 4 h at 37° C. in a 5% CO2 incubator. The supernatant was harvested and analyzed using a microbeta scintillation counter (n=3). […]
Cells were stained with the indicated cell-surface markers and/or fixed/permeabilized using a Fixation/Permeabilization Kit (eBioscience). […] Data were analyzed using NovoExpress software (Agilent Technologies).

NK cells [2] = assay: NK cell expansion in vitro, cell counts by trypan blue exclusion; conditions: 7 days
BCL-2, BCL-XL, and MCL-1 = assay: Immunoblot of BCL-2, BCL-XL and MCL-1 in NK cells; conditions: 48 h

Row | Substance | mRNA levels of the PDGFRB gene (PDGFRB) | expression of IFN-γ, TNF-α, perforin, and CD107a (NK cells [1]) | expression of granzyme B (NK cells [1]) | expansion of primary NK cells transduced with PDGFRβ (NK cells [2]; IL-2 50 U/ml and PDGF-D 50 ng/ml) | NK cell expansion (NK cells [2]; primary NK cells, IL-15 10 ng/ml and PDGF-D 50 ng/ml) | expression levels of BCL-2, BCL-XL, and MCL-1 (BCL-2, BCL-XL, and MCL-1; IL-15 10 ng/ml and PDGF-D 50 ng/ml) | receptor dependence of the BCL-2, BCL-XL, and MCL-1 increase (BCL-2, BCL-XL, and MCL-1; with anti-NKp44 or anti-PDGFRβ)
1 | IL-15: recombinant human IL-15 (200-15); recombinant murine IL-15 in the mouse NK cell test | increased significantly | – | – | – | – | – | –
2 | PDGF-D: recombinant human PDGF-DD (1159-SB-025), R&D Systems | – | induced | not granzyme B | enhanced the expansion | promoted cell expansion | increased the expression levels | NKp44-independent but PDGFRβ-dependent
